# Assays:
# [1] = system: human HCT116 colorectal cancer xenograft; experiment: HCT116 xenograft, tumor growth inhibition after 15 days dosing; format: in vivo, nude mice
# Method: (§1) The human HCT116 colorectal adenocarcinoma cells used for implantation were harvested during log phase growth and resuspended in phosphate-buffered saline at 5×10^7 cells/mL. Each mouse was injected s.c. in the right flank with 1.0×10^7 cells (0.2 mL cell suspension). Tumors were monitored twice weekly and then daily as their volumes approached 1,200 mm^3. Tumor size, in mm^3, was calculated from: where w = width and l = length in mm of the tumor. Tumor volume = (w^2×l)/2.
# The tumor growth curves show the group median tumor volume, on a log scale as a function of time.
# (§2) Once a tumor was palpable with the size of approximately 55 mm^3, mice were randomized into vehicle control and treatment groups (8 mice per group). Control mice received the vehicle (0.5% carboxymethyl cellulose +0.1% Tween 80). Tumors in all 3 groups were allowed to reach an endpoint volume of 1,200 mm^3.
# [2] = system: ACHN; experiment: NCI-60 cell lines screening; format: cell-based, human; settings: Renal Cancer panel
# Method: (§3) The NCI-60 cancer cell lines screening was conducted by the NCI’s Developmental Therapeutics Program (DTP; http://www.dtp.nci.nih.gov/branches/btb/ivclsp.html).
# [3] = system: OVCAR-4; experiment: NCI-60 cell lines screening; format: cell-based, human; settings: OVCAR-4, Ovarian Cancer panel
# Method: as §3
# [4] = system: SNB-19; experiment: NCI-60 cell lines screening; format: cell-based, human; settings: SNB-19, CNS Cancer panel
# Method: as §3
# [5] = system: EKVX; experiment: NCI-60 cell lines screening; format: cell-based, human; settings: Non-Small Cell Lung Cancer panel
# Method: as §3
# [6] = system: OVCAR-8; experiment: NCI-60 cell lines screening; format: cell-based, human; settings: OVCAR-8, Ovarian Cancer panel
# Method: as §3
# [7] = system: OVCAR-5; experiment: NCI-60 cell lines screening; format: cell-based, human; settings: OVCAR-5, Ovarian Cancer panel
# Method: as §3
# [8] = system: SF-268; experiment: NCI-60 cell lines screening; format: cell-based, human; settings: SF-268, CNS Cancer panel
# Method: as §3
# [9] = system: MDA-MB-468; experiment: NCI-60 cell lines screening; format: cell-based, human; settings: MDA-MB-468, Breast Cancer panel
# Method: as §3
# [10] = system: K-562; experiment: NCI-60 cell lines screening; format: cell-based, human; settings: K-562, Leukemia panel
# Method: as §3
# [11] = system: UACC-257; experiment: NCI-60 cell lines screening; format: cell-based, human; settings: UACC-257, Melanoma panel
# Method: as §3
# [12] = system: HCT-116; experiment: NCI-60 cell lines screening; format: cell-based, human; settings: HCT-116, Colon Cancer panel
# Method: as §3
# [13] = system: NCI-H226; experiment: NCI-60 cell lines screening; format: cell-based, human; settings: NCI-H226, Non-Small Cell Lung Cancer panel
# Method: as §3
# [14] = system: U251; experiment: NCI-60 cell lines screening; format: cell-based, human; settings: U251, CNS Cancer panel
# Method: as §3
# [15] = system: RXF 393; experiment: NCI-60 cell lines screening; format: cell-based, human; settings: RXF 393, Renal Cancer panel
# Method: as §3
# [16] = system: T-47D; experiment: NCI-60 cell lines screening; format: cell-based, human; settings: Breast Cancer panel
# Method: as §3
# [17] = system: SK-MEL-28; experiment: NCI-60 cell lines screening; format: cell-based, human; settings: SK-MEL-28, Melanoma panel
# Method: as §3
# [18] = system: SK-MEL-5; experiment: NCI-60 cell lines screening; format: cell-based, human; settings: SK-MEL-5, Melanoma panel
# Method: as §3
# [19] = system: KM12; experiment: NCI-60 cell lines screening; format: cell-based, human; settings: KM12, Colon Cancer panel
# Method: as §3
# [20] = system: HCT-15; experiment: NCI-60 cell lines screening; format: cell-based, human; settings: HCT-15, Colon Cancer panel
# Method: as §3
# [21] = system: SW-620; experiment: NCI-60 cell lines screening; format: cell-based, human; settings: SW-620, Colon Cancer panel
# Method: as §3
# [22] = system: HT29; experiment: NCI-60 cell lines screening; format: cell-based, human; settings: HT29, Colon Cancer panel
# Method: as §3
# [23] = system: human HCT116 colorectal cancer xenograft; experiment: HCT116 xenograft, tumor growth delay to 1,200 mm^3 endpoint; format: in vivo, nude mice; settings: for No. of CR (complete regression): 8 mice per group; for %TGD (tumor growth delay): [(T-C)/C]×100; for T-C: median TTE treated versus control
# Method: as §1
# The logrank test was used to determine the statistical significance of the difference between the TTE values of two groups, except any NTR deaths. […] The two-tailed statistical analyses were conducted at P = 0.05. Kaplan-Meier plots show the percentage of animals remaining in the study versus time. The Kaplan-Meier plots use the same data set as the logrank test.
# as §2
# [24] = Homo sapiens, read-out: LC50 (the source's name)
compound,measurement,setting,value
"O=C(C=Cc1ccc2c(c1)CCN2S(=O)(=O)c1ccccc1)NO [MPT0E028, 3-(1-benzenesulfonyl-2,3-dihydro-1H-indol-5-yl)-N-hydroxy-acrylamide]",percent tumor growth inhibition (%TGI),[1]; 100 mg/kg oral once a day for 15 days,32.0%
same,percent tumor growth inhibition (%TGI),[1]; 200 mg/kg oral once a day for 15 days,73.5%
same,GI50,[2]; Homo sapiens,167 nM
same,CC50,[2]; [24],4080 nM
same,TGI,[2],576 nM
same,GI50,[3]; Homo sapiens,509 nM
same,CC50,[3]; [24],> 100000 nM
same,TGI,[3],31800 nM
same,GI50,[4]; Homo sapiens,434 nM
same,CC50,[4]; [24],5650 nM
same,TGI,[4],1640 nM
same,GI50,[5]; Homo sapiens,534 nM
same,TGI,[5],>100000 nM
same,GI50,[6]; Homo sapiens,121 nM
same,CC50,[6]; [24],> 100000 nM
same,TGI,[6],1750 nM
same,GI50,[7]; Homo sapiens,60.2 nM
same,CC50,[7]; [24],2580 nM
same,TGI,[7],316 nM
same,GI50,[8]; Homo sapiens,464 nM
same,CC50,[8]; [24],70400 nM
same,TGI,[8],3400 nM
same,GI50,[9]; Homo sapiens,196 nM
same,CC50,[9]; [24],6310 nM
same,TGI,[9],1150 nM
same,GI50,"[10]; Homo sapiens, K562",115 nM
same,CC50,"[10]; Homo sapiens, K562, read-out: LC50 (the source's name)",> 100000 nM
same,TGI,[10],>100000 nM
same,GI50,[11]; Homo sapiens,127 nM
same,CC50,[11]; [24],> 100000 nM
same,TGI,[11],1650 nM
same,TGI,[12],204 nM
same,GI50,[12]; Homo sapiens,56.3 nM
same,CC50,[12]; [24],566 nM
same,GI50,[13]; Homo sapiens,1240 nM
same,CC50,[13]; [24],19000 nM
same,TGI,[13],3880 nM
same,GI50,"[14]; Homo sapiens, U-251",199 nM
same,CC50,"[14]; Homo sapiens, U-251, read-out: LC50 (the source's name)",3760 nM
same,TGI,[14],820 nM
same,GI50,[15]; Homo sapiens,112 nM
same,CC50,[15]; [24],998 nM
same,TGI,[15],334 nM
same,TGI,[16],445 nM
same,GI50,"[16]; Homo sapiens, T47D",121 nM
same,CC50,"[16]; Homo sapiens, T47D, read-out: LC50 (the source's name)",> 100000 nM
same,GI50,[17]; Homo sapiens,406 nM
same,CC50,[17]; [24],> 100000 nM
same,TGI,[17],2740 nM
same,GI50,[18]; Homo sapiens,136 nM
same,CC50,[18]; [24],705 nM
same,TGI,[18],310 nM
same,GI50,[19]; Homo sapiens,286 nM
same,CC50,[19]; [24],5780 nM
same,TGI,[19],1490 nM
same,TGI,[20],13100 nM
same,GI50,[20]; Homo sapiens,430 nM
same,CC50,[20]; [24],90200 nM
same,GI50,[21]; Homo sapiens,147 nM
same,CC50,[21]; [24],> 100000 nM
same,TGI,[21],11200 nM
same,TGI,[22],716 nM
same,GI50,"[22]; Homo sapiens, HT-29",118 nM
same,CC50,"[22]; Homo sapiens, HT-29, read-out: LC50 (the source's name)",68100 nM
same,No. of CR (complete regression),[23]; 50 mg/kg po qd,0
same,%TGD (tumor growth delay),[23]; 50 mg/kg po qd,0%
same,T-C,[23]; 50 mg/kg po qd,0 days
same,Median TTE,[23]; 100 mg/kg po qd to endpoint 1200 mm^3,19.2 days
same,No. of CR (complete regression),[23]; 100 mg/kg po qd,1
same,%TGD (tumor growth delay),[23]; 100 mg/kg po qd,16%
same,T-C,[23]; 100 mg/kg po qd,2.6 days
same,Median TTE,[23]; 200 mg/kg po qd to endpoint 1200 mm^3,36.9 days
same,No. of CR (complete regression),[23]; 200 mg/kg po qd,3
same,%TGD (tumor growth delay),[23]; 200 mg/kg po qd,122%
same,T-C,[23]; 200 mg/kg po qd,20 days

# Source: publication PMC3425516 (PLoS ONE, 2012)
